Patent US20240116985A1, “STAPLED PEPTIDES AND METHODS THEREOF” (priority 2020, published 2024)
pIC50: −log10 of the molar value.

Legend:
[1] = molecular target: T1, full-length beta-Catenin (Uniprot ID P35222) (Homo sapiens, UniProt P35222); test: Fluorescence polarization IC50 (beta-catenin / 5FAM-TCF4 10-53 competition); format: binding; settings: fluorescence polarization; read-out: beta-Catenin FP IC50
T1 construct: 10 nM full-length beta-Catenin (Uniprot ID P35222)
T1 sequence (P35222 1-781): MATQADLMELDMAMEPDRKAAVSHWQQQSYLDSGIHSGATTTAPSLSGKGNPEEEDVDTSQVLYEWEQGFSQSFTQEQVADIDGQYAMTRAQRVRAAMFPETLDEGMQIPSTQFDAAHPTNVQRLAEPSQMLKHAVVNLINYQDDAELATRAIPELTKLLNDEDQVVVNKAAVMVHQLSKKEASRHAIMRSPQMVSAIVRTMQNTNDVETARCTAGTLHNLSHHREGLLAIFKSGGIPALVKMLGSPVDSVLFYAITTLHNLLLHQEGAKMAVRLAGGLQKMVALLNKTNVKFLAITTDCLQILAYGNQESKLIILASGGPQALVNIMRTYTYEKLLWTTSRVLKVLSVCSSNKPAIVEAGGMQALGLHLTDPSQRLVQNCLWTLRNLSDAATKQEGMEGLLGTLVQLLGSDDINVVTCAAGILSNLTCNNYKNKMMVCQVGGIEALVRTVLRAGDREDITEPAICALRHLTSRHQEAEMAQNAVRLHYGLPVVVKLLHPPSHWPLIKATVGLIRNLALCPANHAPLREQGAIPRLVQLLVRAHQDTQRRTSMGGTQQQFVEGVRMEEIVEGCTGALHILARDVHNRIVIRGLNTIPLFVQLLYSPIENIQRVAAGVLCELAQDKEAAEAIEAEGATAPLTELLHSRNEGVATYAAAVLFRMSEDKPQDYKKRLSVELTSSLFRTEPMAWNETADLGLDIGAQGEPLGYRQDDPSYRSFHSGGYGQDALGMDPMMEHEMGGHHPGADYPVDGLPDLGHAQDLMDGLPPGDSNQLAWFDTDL

[2] = molecular target: T2, beta-catenin/TCF4 engagement (Homo sapiens, UniProt P35222); test: Nano-BRET target engagement assay (B-cat-Halo & TCF4-Luc in HEK293 cells); format: cell-based; settings: absolute IC50; read-out: NanoBRET Abs IC50
T2 construct: expressed in transfected cells; host or cells: HEK293
T2 sequence (P35222 1-781): T1 sequence (P35222 1-781)

| SMILES | pIC50 [1] | pIC50 [2] |
| --- | --- | --- |
| CC(=O)N1CCC[C@]12CC=CCCCC1(CCCC=CCCCOC(=O)N3CC[C@@](C(=O)N[C@@H](Cc4ccccc4C(F)(F)F)C(=O)N[C@@H](Cc4csc5ccccc45)C(=O)N[C@@H](CCC(=O)N4CCOCC4)C(N)=O)(C3)NC(=O)[C@H](CCC(=O)N(C)C)NC(=O)[C@H](Cc3ccccc3)NC(=O)[C@H](C)NC(=O)[C@H](C)NC(=O)[C@H](Cc3cccc(C(=O)O)c3)NC(=O)[C@H](CC(=O)O)NC1=O)NC(=O)[C@H](CC(C)(C)C)NC(=O)[C@H](CC(=O)O)NC2=O (stereo partly drawn) [I-2545, Ac-PL3-Asp-Npg-B5-Asp-3COOHF-Ala-Ala-Phe-Me2Gln-PyrS2-2F3MeF-BztA-MorphGln-NH2] | 7.80 | 5.40 |
| CC(=O)N1CCC[C@]12CC=CCCCC1(CCCC=CCCCOC(=O)N3CC[C@@](C(=O)N[C@@H](Cc4ccccc4C(F)(F)F)C(=O)N[C@@H](Cc4csc5ccccc45)C(=O)N[C@@H](CCC(=O)N4CCOCC4)C(N)=O)(C3)NC(=O)[C@H](CCC(=O)N3CCOCC3)NC(=O)[C@H](Cc3ccccc3)NC(=O)[C@H](C)NC(=O)[C@H](C)NC(=O)[C@H](Cc3cccc(C(=O)O)c3)NC(=O)[C@H](CC(=O)O)NC1=O)NC(=O)[C@H](CC(C)(C)C)NC(=O)[C@H](CC(=O)O)NC2=O (stereo partly drawn) [I-2546, Ac-PL3-Asp-Npg-B5-Asp-3COOHF-Ala-Ala-Phe-MorphGln-PyrS2-2F3MeF-BztA-MorphGln-NH2] | 7.89 | 5.46 |
| CCCC[C@@H]1NC(=O)[C@H](Cc2ccccc2)NC(=O)[C@H](C)NC(=O)C(C)(C)NC(=O)[C@H](Cc2cccc(C(=O)O)c2)NC(=O)[C@H](CC(=O)O)NC(=O)C2(CCCC=CCCCOC(=O)N3CC[C@@](C(=O)N[C@@H](Cc4ccsc4)C(=O)N[C@@H](Cc4csc5ccccc45)C(=O)N[C@@H](CCC(=O)NCC)C(N)=O)(C3)NC1=O)CCCC=CC[C@]1(CCCN1C(C)=O)C(=O)N[C@@H](CC(=O)O)C(=O)N[C@@H](CC(C)(C)C)C(=O)N2 (stereo partly drawn) [I-2552, Ac-PL3-Asp-Npg-B5-Asp-3COOHF-Aib-Ala-Phe-nLeu-PyrS2-3Thi-BztA-NHEt]GlnR-NH2] | 7.92 | 4.98 |
| CCCC[C@@H]1NC(=O)[C@H](Cc2ccccc2)NC(=O)[C@H](C)NC(=O)C(C)(C)NC(=O)[C@H](Cc2cccc(C(=O)O)c2)NC(=O)[C@H](CC(=O)O)NC(=O)C2(CCCC=CCCCOC(=O)N3CC[C@@](C(=O)N[C@@H](Cc4ccsc4)C(=O)N[C@@H](Cc4csc5ccccc45)C(=O)N[C@@H](CCC(=O)N4CCOCC4)C(N)=O)(C3)NC1=O)CCCC=CC[C@]1(CCCN1C(C)=O)C(=O)N[C@@H](CC(=O)O)C(=O)N[C@@H](CC(C)(C)C)C(=O)N2 (stereo partly drawn) [I-2553, Ac-PL3-Asp-Npg-B5-Asp-3COOHF-Aib-Ala-Phe-nLeu-PyrS2-3Thi-BztA-[Morph]GlnR-NH2] | 8.00 | 5.09 |
| CCCC[C@@H]1NC(=O)[C@H](Cc2ccccc2)NC(=O)[C@H](C)NC(=O)C(C)(C)NC(=O)[C@H](Cc2cccc(C(=O)O)c2)NC(=O)[C@H](CC(=O)O)NC(=O)C2(CCCC=CCCCOC(=O)N3CC[C@@](C(=O)N[C@@H](Cc4ccsc4)C(=O)N[C@@H](Cc4csc5ccccc45)C(=O)N[C@@H](CCC(=O)N4CCC(C(F)(F)F)CC4)C(N)=O)(C3)NC1=O)CCCC=CC[C@]1(CCCN1C(C)=O)C(=O)N[C@@H](CC(=O)O)C(=O)N[C@@H](CC(C)(C)C)C(=O)N2 (stereo partly drawn) [I-2557, Ac-PL3-Asp-Npg-B5-Asp-3COOHF-Aib-Ala-Phe-nLeu-PyrS2-3Thi-BztA-4F3CPip]GlnR-NH2] | 7.54 | 4.71 |
| CC[C@@H]1NC(=O)[C@H](Cc2ccccc2)NC(=O)[C@H](C)NC(=O)C(C)(C)NC(=O)[C@H](Cc2cccc(C(=O)O)c2)NC(=O)[C@H](CC(=O)O)NC(=O)C2(CCCC=CCCCOC(=O)N3CC[C@@](C(=O)N[C@@H](Cc4ccsc4)C(=O)N[C@@H](Cc4csc5ccccc45)C(=O)N[C@@H](CCC(=O)N4CCOCC4)C(N)=O)(C3)NC1=O)CCCC=CC[C@]1(CCCN1C(C)=O)C(=O)N[C@@H](CC(=O)O)C(=O)N[C@@H](CC(C)(C)C)C(=O)N2 (stereo partly drawn) [I-2558, Ac-PL3-Asp-Npg-B5-Asp-3COOHF-Aib-Ala-Phe-Abu-PyrS2-3Thi-BztA-[Morph]GlnR-NH2] | 8.15 | 4.83 |

Other lines, results leading:

| pIC50 [1] | pIC50 [2] | SMILES |
| --- | --- | --- |
| 7.89 | 5.46 | CC(=O)N1CCC[C@]12CC=CCCCC1(CCCC=CCCCOC(=O)N3CC[C@@](C(=O)N[C@@H](Cc4ccccc4C(F)(F)F)C(=O)N[C@@H](Cc4csc5ccccc45)C(=O)N[C@@H](CCC(=O)N4CCOCC4)C(N)=O)(C3)NC(=O)[C@H](CCC(=O)N3CCOCC3)NC(=O)[C@H](Cc3ccccc3)NC(=O)[C@H](C)NC(=O)[C@H](C)NC(=O)[C@H](Cc3cccc(C(=O)O)c3)NC(=O)[C@H](CC(=O)O)NC1=O)NC(=O)[C@H](CC(C)(C)C)NC(=O)[C@H](CC(=O)O)NC2=O (stereo partly drawn) [I-2547, Ac-PL3-Asp-Npg-B5-Asp-3COOHF-Ala-Ala-Phe-MorphGln-PyrS2-2F3MeF-BztA-MorphGln-NH2] |
| 7.96 | 5.44 | CC(=O)NCCCC[C@@H]1NC(=O)[C@H](Cc2ccccc2)NC(=O)[C@H](C)NC(=O)[C@H](C)NC(=O)[C@H](Cc2cccc(C(=O)O)c2)NC(=O)[C@H](CC(=O)O)NC(=O)C2(CCCC=CCCCOC(=O)N3CC[C@@](C(=O)N[C@@H](Cc4ccccc4C(F)(F)F)C(=O)N[C@@H](Cc4csc5ccccc45)C(=O)N[C@@H](CCC(=O)N4CCOCC4)C(N)=O)(C3)NC1=O)CCCC=CC[C@]1(CCCN1C(C)=O)C(=O)N[C@@H](CC(=O)O)C(=O)N[C@@H](CC(C)(C)C)C(=O)N2 (stereo partly drawn) [I-2548, Ac-PL3-Asp-Npg-B5-Asp-3COOHF-Ala-Ala-Phe-AcLys-PyrS2-2F3MeF-BztA-MorphGln-NH2] |
| 7.89 | 5.60 | CC(=O)NCCCC[C@@H]1NC(=O)[C@H](Cc2ccccc2)NC(=O)[C@H](C)NC(=O)[C@H](C)NC(=O)[C@H](Cc2cccc(C(=O)O)c2)NC(=O)[C@H](CC(=O)O)NC(=O)C2(CCCC=CCCCOC(=O)N3CC[C@@](C(=O)N[C@@H](Cc4ccccc4C(F)(F)F)C(=O)N[C@@H](Cc4csc5ccccc45)C(=O)N[C@@H](CCC(=O)N4CCOCC4)C(N)=O)(C3)NC1=O)CCCC=CC[C@]1(CCCN1C(C)=O)C(=O)N[C@@H](CC(=O)O)C(=O)N[C@@H](CC(C)(C)C)C(=O)N2 (stereo partly drawn) [I-2549, Ac-PL3-Asp-Npg-B5-Asp-3COOHF-Ala-Ala-Phe-AcLys-PyrS2-2F3MeF-BztA-MorphGln-NH2] |
| 8.10 | 5.01 | CCCC[C@@H]1NC(=O)[C@H](Cc2ccccc2)NC(=O)[C@H](C)NC(=O)C(C)(C)NC(=O)[C@H](Cc2cccc(C(=O)O)c2)NC(=O)[C@H](CC(=O)O)NC(=O)C2(CCCC=CCCCOC(=O)N3CC[C@@](C(=O)N[C@@H](Cc4ccsc4)C(=O)N[C@@H](Cc4csc5ccccc45)C(=O)N[C@@H](CCC(=O)N(C)C)C(N)=O)(C3)NC1=O)CCCC=CC[C@]1(CCCN1C(C)=O)C(=O)N[C@@H](CC(=O)O)C(=O)N[C@@H](CC(C)(C)C)C(=O)N2 (stereo partly drawn) [I-2551, Ac-PL3-Asp-Npg-B5-Asp-3COOHF-Aib-Ala-Phe-nLeu-PyrS2-3Thi-BztA-[NMe2]GlnR-NH2] |
| 8.10 | 5.48 | CCCC[C@@H]1NC(=O)[C@H](Cc2ccccc2)NC(=O)[C@H](C)NC(=O)C(C)(C)NC(=O)[C@H](Cc2cccc(C(=O)O)c2)NC(=O)[C@H](CC(=O)O)NC(=O)C2(CCCC=CCCCOC(=O)N3CC[C@@](C(=O)N[C@@H](Cc4ccsc4)C(=O)N[C@@H](Cc4csc5ccccc45)C(=O)N[C@@H](CCC(=O)N(CCOC)CCOC)C(N)=O)(C3)NC1=O)CCCC=CC[C@]1(CCCN1C(C)=O)C(=O)N[C@@H](CC(=O)O)C(=O)N[C@@H](CC(C)(C)C)C(=O)N2 (stereo partly drawn) [I-2554, Ac-PL3-Asp-Npg-B5-Asp-3COOHF-Aib-Ala-Phe-nLeu-PyrS2-3Thi-BztA-[bismethoxyethylamine]GlnR-NH2] |
| 8.22 | 5.15 | CCCC[C@@H]1NC(=O)[C@H](Cc2ccccc2)NC(=O)[C@H](C)NC(=O)C(C)(C)NC(=O)[C@H](Cc2cccc(C(=O)O)c2)NC(=O)[C@H](CC(=O)O)NC(=O)C2(CCCC=CCCCOC(=O)N3CC[C@@](C(=O)N[C@@H](Cc4ccsc4)C(=O)N[C@@H](Cc4csc5ccccc45)C(=O)N[C@@H](CCC(=O)N4CCN(C(C)=O)CC4)C(N)=O)(C3)NC1=O)CCCC=CC[C@]1(CCCN1C(C)=O)C(=O)N[C@@H](CC(=O)O)C(=O)N[C@@H](CC(C)(C)C)C(=O)N2 (stereo partly drawn) [I-2556, Ac-PL3-Asp-Npg-B5-Asp-3COOHF-Aib-Ala-Phe-nLeu-PyrS2-3Thi-BztA-[AcPpz]GlnR-NH2] |
| 8.10 | 5.42 | CC[C@@H]1NC(=O)[C@H](Cc2ccccc2)NC(=O)[C@H](C)NC(=O)C(C)(C)NC(=O)[C@H](Cc2cccc(C(=O)O)c2)NC(=O)[C@H](CC(=O)O)NC(=O)C2(CCCC=CCCCOC(=O)N3CC[C@@](C(=O)N[C@@H](Cc4ccsc4)C(=O)N[C@@H](Cc4csc5ccccc45)C(=O)N[C@@H](CCC(=O)N(CCOC)CCOC)C(N)=O)(C3)NC1=O)CCCC=CC[C@]1(CCCN1C(C)=O)C(=O)N[C@@H](CC(=O)O)C(=O)N[C@@H](CC(C)(C)C)C(=O)N2 (stereo partly drawn) [I-2559, Ac-PL3-Asp-Npg-B5-Asp-3COOHF-Aib-Ala-Phe-Abu-PyrS2-3Thi-BztA-[bismethoxyethylamine]GlnR-NH2] |
